Experimental data as given in patent publication US9266830B2, “Pesticidal arylpyrrolidines” (Bayer Intellectual Property GmbH, priority 2007, dated 2016).

Columns and labels:
Format in all cases: in vivo
Boophilus microplus [1] = assay: Boophilus microplus test (injection); conditions: application rate 20 μg/animal, adult engorged females, after 7 days
How it was run: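 Compound dissolved and diluted in DMSO, then injected into the abdomen of adult engorged female ticks, five per dose. Ticks held in a climate chamber and fertile egg deposition monitored. Read at 7 days as %, 100% = all eggs infertile, 0% = all fertile.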

Musca domestica = Musca domestica test (sugar sponge); conditions: for activity (mortality in %): application rate 100 ppm, adults, after 2 days
Description: (§1) Solvent: dimethyl sulfoxide
To produce a suitable preparation of active compound, 10 mg of active compound are dissolved in 0.5 ml solvent, and the concentrate is diluted with water to the desired concentration. Prior to the assay, a piece or kitchen sponge is soaked with a mixture of sugar and compound solution and placed into a container. 10 adults (Musca domestica) are placed into the container and closed with a perforated lid. After 2 days mortality in % is determined. 100% means that all the flies have been killed; 0% means that none of the flies have been killed.

Amblyomma hebraeum = Amblyomma hebraeum test (AMBYHE), nymph immersion; conditions: for activity (mortality in %): application rate 100 ppm, nymphs, after 42 days
Description: as §1
To produce a suitable preparation of active compound, 10 mg of active compound are dissolved in 0.5 ml solvent, and the concentrate is diluted with water to the desired concentration. Nymphs of the tick Amblyomma hebraeum are placed in perforated plastic beakers and immersed in aqueous compound solution for one minute. Ticks are transferred to a filter paper in a Petri dish and incubated in a climate chamber for 42 days.
After 42 days mortality in % is determined 100% means that all the ticks have been killed; 0% means that none of the ticks have been killed.

[2] = system: organic phosphorus agent- and carbamate agent-resistant Myzus persicae; assay: Test for organic phosphorus agent- and carbamate agent-resistant Myzus persicae (spray, eggplant); conditions: 100 ppm active ingredient, 7 days
Description: If not mentioned otherwise, all sample solutions were prepared as described in Biological Test Example 1 and diluted to the appropriate (predetermined) concentrations.
About 30 to 50 of grown organic phosphorus agent- and carbamate agent-resistant Myzus persicae per seedling were inoculated to leaves at 2-leaf stage of eggplants grown in a pot of 6 cm in diameter, to which, after 1 day from the inoculation, the above prepared water-diluted solution of above active compound of the predetermined concentration was sufficiently sprayed with a spray gun. After the spraying, the pot was left in a greenhouse at room temperature for 7 days, followed by the pest-controlling rate calculated. The test was repeated twice.

Lucilia cuprina larvae = assay: Lucilia cuprina test (larvae in minced horse meat); conditions: Lucilia cuprina, 48 h, read-out: activity (mortality in %)
Description: as §1
To produce a suitable preparation of active compound, 10 mg of active compound are dissolved in 0.5 ml solvent, and the concentrate is diluted with water to the desired concentration. Approximately 20-30 (Lucilia cuprina larvae) are transferred into a test tube containing 1 cm^3 of minced horse meat and 0.5 ml aqueous dilution of test compound. After 2 days mortality in % is determined 100% means that all the larvae have been killed; 0% means that none of the larvae have been killed.

Ctenocephalides felis = Ctenocephalides felis test (CTECFE), blood feeding; conditions: 48 h, read-out: activity (mortality in %)
Description: as §1
To produce a suitable preparation of active compound, 10 mg of active compound are dissolved in 0.5 ml solvent, and the concentrate is diluted with cattle blood to the desired concentration. Approximately 10 to 15 adult unfed (Ctenocepahlides felis) are placed in flea chambers. The blood chamber, are sealed with parafilm on the bottom are filled with cattle blood supplied with compound solution and placed on top of the flea chamber, so that the fleas are able to suck the blood. The blood chamber is heated to 37° C. whereas the flea chamber is kept at room temperature. After 2 days mortality in % is determined 100% means that all the fleas have been killed; 0% means that none of the fleas have been killed.

Boophilus microplus [3] = assay: Boophilus microplus (dip); conditions: application rate 100 ppm, adult engorged females, after 7 days
Description: as §1
To produce a suitable preparation of active compound, 10 mg of active compound are dissolved in 0.5 ml solvent, and the concentrate is diluted with water to the desired concentration. Eight to ten adult engorged female Boophilus microplus ticks are placed in perforated plastic beakers and immersed in aqueous compound solution for one minute. Ticks are transferred to a filter paper in a plastic tray. Egg deposition of fertile eggs is monitored after. After 7 days mortality in % is determined 100% means that all the ticks have been killed; 0% means that none of the ticks have been killed.

Row | SMILES | activity (100% means that all eggs are infertile) (Boophilus microplus [1]) | activity (mortality in %) (Musca domestica) | also measured
1 | N#CCC(=O)NCc1ccc(N2CCC(c3cc(Cl)cc(Cl)c3)(C(F)(F)F)C2)cc1Cl (stereo not drawn) [1-39] | 100% | 90% | 
2 | CCC(=O)NCc1ccc(N2CCC(c3cc(Cl)cc(Cl)c3)(C(F)(F)F)C2)cc1C(F)(F)F (stereo not drawn) [1-143] | 100% |  | Activity at 0.8 ppm (Amblyomma hebraeum; 0.8 ppm, comparison with WO2008/128711): 100%; Activity at 4 ppm (Amblyomma hebraeum; 4 ppm, comparison with WO2008/128711): 100%; insecticidal rate (pest-controlling rate) [2]: 100%
3 | O=C(NCc1ccc(N2CCC(c3cc(Cl)cc(Cl)c3)(C(F)(F)F)C2)cc1C(F)(F)F)c1ccc(Cl)nc1 (stereo not drawn) [1-198, 6-chloro-N-{4-[3-(3,5-dichlorophenyl)-3-(trifluoromethyl)-pyrrolidin-1-yl]-2-(trifluoromethyl)benzyl}pyridine-3-carboxyamide] | 100% |  | mortality at 100 ppm (Lucilia cuprina larvae): 100%; mortality at 100 ppm (Ctenocephalides felis): 90%
4 | CCNC(=O)NCc1ccc(N2CCC(c3cc(Cl)cc(Cl)c3)(C(F)(F)F)C2)cc1C(F)(F)F (stereo not drawn) [1-220] | 100% | 90% | 
5 | C#CCNC(=O)NCc1ccc(N2CCC(c3cc(Cl)cc(Cl)c3)(C(F)(F)F)C2)cc1C(F)(F)F (stereo not drawn) [1-231] | 100% | 95% | 
6 | O=C(NCCC(F)(F)F)NCc1ccc(N2CCC(c3cc(Cl)cc(Cl)c3)(C(F)(F)F)C2)cc1C(F)(F)F (stereo not drawn) [1-238] | 100% | 90% | activity (mortality in %) (Amblyomma hebraeum): 85%
7 | CCNC(=O)NCc1ccc(N2CCC(c3cc(C(F)(F)F)cc(C(F)(F)F)c3)(C(F)(F)F)C2)cc1C(F)(F)F (stereo not drawn) [1-302] | 100% |  | activity (mortality in %) (Boophilus microplus [3]): 90%
8 | O=C(NCc1ccc(N2CCC(c3cc(C(F)(F)F)cc(C(F)(F)F)c3)(C(F)(F)F)C2)cc1C(F)(F)F)NC1CC1 (stereo not drawn) [1-305] | 100% |  | activity (mortality in %) (Amblyomma hebraeum): 90%; activity (mortality in %) (Boophilus microplus [3]): 80%
9 | O=C(CC(F)(F)F)NCc1ccc(N2CCC(c3cc(C(F)(F)F)cc(C(F)(F)F)c3)(C(F)(F)F)C2)cc1Cl (stereo not drawn) [1-309] | 100% |  | insecticidal rate (pest-controlling rate) [2]: 100%
10 | O=C(CC(F)(F)F)NCc1ccc(N2CCC(c3cc(C(F)(F)F)cc(C(F)(F)F)c3)(C(F)(F)F)C2)cc1Br (stereo not drawn) [1-314] | 100% |  | insecticidal rate (pest-controlling rate) [2]: 100%
11 | CCCC(=O)NCc1ccc(N2CCC(c3cc(Cl)c(Cl)c(Cl)c3)(C(F)(F)F)C2)cc1C(F)(F)F (stereo not drawn) [1-328] |  |  | insecticidal rate (pest-controlling rate) [2]: 100%
12 | CCC(=O)NCc1ccc(N2CCC(c3cc(Cl)cc(C(F)(F)F)c3)(C(F)(F)F)C2)cc1C(F)(F)F (stereo not drawn) [1-356] |  |  | insecticidal rate (pest-controlling rate) [2]: 100%
13 | CSCCC(=O)NCc1ccc(N2CCC(c3cc(Cl)cc(Cl)c3)(C(F)(F)F)C2)cc1Cl (stereo not drawn) [1-467] | 100% |  | activity (mortality in %) (Amblyomma hebraeum): 90%; activity (mortality in %) (Boophilus microplus [3]): 90%
14 | CCSCC(=O)NCc1ccc(N2CCC(c3cc(Cl)cc(Cl)c3)(C(F)(F)F)C2)cc1C(F)(F)F (stereo not drawn) [1-499] | 100% | 90% | 
15 | O=C(Cn1cncn1)NCc1ccc(N2CCC(c3cc(Cl)cc(Cl)c3)(C(F)(F)F)C2)cc1C(F)(F)F (stereo not drawn) [1-558] | 100% |  | activity (mortality in %) (Boophilus microplus [3]): 80%
16 | CCC(=O)NCc1cnc(N2CCC(c3cc(Cl)c(Cl)c(Cl)c3)(C(F)(F)F)C2)nc1C(F)(F)F (stereo not drawn) [3-142] | 100% |  | insecticidal rate (pest-controlling rate) [2]: 100%
17 | O=C(NCC(F)(F)F)c1sc(N2CCC(c3cc(Cl)c(Cl)c(Cl)c3)(C(F)(F)F)C2)nc1C(F)(F)F (stereo not drawn) [4-21] | 100% | 90% | 
18 | CCC(=O)NCc1sc(N2CCC(c3cc(Cl)cc(Cl)c3)(C(F)(F)F)C2)nc1C(F)(F)F (stereo not drawn) [5-4] | 100% | 85% | 
19 | O=C(CC(F)(F)F)NCc1sc(N2CCC(c3cc(Cl)cc(Cl)c3)(C(F)(F)F)C2)nc1C(F)(F)F (stereo not drawn) [5-22] | 100% | 95% | 
20 | CCC(=O)NCc1sc(N2CCC(c3cc(Cl)c(Cl)c(Cl)c3)(C(F)(F)F)C2)nc1C(F)(F)F (stereo not drawn) [5-142, N-({2-[3-(3,4,5-trichlorophenyl)-3-(trifluoromethyl)pyrrolidin-1-yl]-4-(trifluoromethyl)-1,3-thiazol-5-yl}methyl)propanamide] | 100% |  | mortality at 100 ppm (Lucilia cuprina larvae): 100%; mortality at 100 ppm (Ctenocephalides felis): 100%; mortality at 100 ppm (Musca domestica; Musca domestica, 48 h, read-out: activity (mortality in %)): 100%
21 | O=C(CC(F)(F)F)NCc1sc(N2CCC(c3cc(C(F)(F)F)cc(C(F)(F)F)c3)(C(F)(F)F)C2)nc1C(F)(F)F (stereo not drawn) [5-150] | 100% | 95% | 
